From patent US10081655B2, “Cationic antibacterial composition” (priority 2011, dated 2018)
In brackets after ≈: the same amount, converted by molar mass.

Assays:
[1] = system: E. coli; assay: MBC by plating; format: cell-based
Experimental: (§1) All cationic antibacterial compounds and control (vancomycin) were assayed in a micro-dilution broth format. Stock solutions were made by serially diluting the compounds using autoclaved Millipore water or broth media. The antibacterial activity of the compounds was determined against Methicillin sensitive S. aureus (MSSA), Methicillin resistant S. aureus (MRSA), vancomycin sensitive Enterococcus faecium (VSE), vancomycin resistant Enterococcus faecium (VRE), and E. coli. Bacteria, to be tested, were grown for about 10 h in the suitable media, MSSA and MRSA were grown in Yeast-dextrose broth (about 1 g of beef extract, about 2 g of yeast extract, about 5 g of peptone and about 5 g of NaCl in about 1000 mL of sterile distilled water (pH-7)). For solid media, about 5% agar was used along with above mentioned composition. E. coli was cultured in Luria Bertani broth (about 10 g of tryptone, about 5 g of yeast extract, and about 10 g of NaCl in 1000 mL of sterile distilled water, pH −7). VSE and VRE were cultured in Brain Heart Infusion broth (Himedia). The bacterial samples were freeze dried and stored at about −80° C. About 5 μl of these stocks were added to about 3 ml of the nutrient broth and the culture was grown for about 6 h at about 37° C. prior to the experiments. This 6 h grown culture gives about 10^9 cfu/mL for MSSA and MRSA, while it was about 10^8 cfu/mL for E. coli, 10^9 cfu/mL for both VSE and VRE and this was determined by spread plating method. The 6 h grown culture was diluted to give effective cell concentration of about 10^5 cfu/mL which was then used for determining MIC.
(§2) Compounds were serially diluted, in sterile water (2 fold dilution is employed) in a way that the working concentration was about 10 μM for MSSA MRSA, and VSE while for VRE and E. coli it was about 100 μM. About 50 μL of these serial dilutions were added to the wells of 96 well plate followed by the addition of about 150 μL of bacterial solution. The plates were then incubated at about 37° C., 150 rpm in the incubator and O.D at 600 nm was recorded at an interval of about 10 h and about 24 h using TECAN (Infinite series, M200 pro) Plate Reader. Each concentration had triplicate values and the whole experiment was done at least twice and the MIC value was determined by taking the average of triplicate O. D. values for each concentration and plotting it against concentration. The data was then subjected to sigmoidal fitting. From the curve the MIC value was determined, as the point in the curve where the O.D. was similar to that of control having no bacteria.
(§3) MBC values were determined by plating about 50 μl of the solution and later counting the colonies after their development.

[2] = Cytotoxicity assay (MTT); format: cell-based; conditions: human, HeLa cells (cervical cancer cells), about 24 h
Experimental: Cytotoxity of compounds 4 and 7 was determined against HeLa cell line following well known MTT assay. Cells were grown in DMEM at about 37° C. in a humidified-air atmosphere (about 5% CO2/95% air) in DMEM complete medium, supplemented with about 10% heat inactivated Fetal Bovine Serum and about 100 units/mL penicillin G, about 100 µg/mL streptomycin. Cells were seeded into 96 well plate and kept under the above mentioned conditions till they attained about 80% confluency. Compounds were serially diluted, in sterile water (2 fold dilution is employed) in a way that the working concentration was 100 μM. 50 μL of these dilutions were added to the cells and the volume was made up to 200 μL using DMEM medium. Cells were kept under observation for about 24 h. Later the medium was removed, cells were washed thoroughly with PBS and about 100 μL of MTT solution (about 5 mg/mL) was added to the wells. After about 3 h the MTT was removed, cells were lysed using DMSO and the plate was read at about 570 nm. One containing no compound (untreated cell) and other with about 10 vol % Triton-X 100 solution were also used. Percentage of cell survival was calculated using the formula: (Atreated cells−Atriton-X cells)/(Auntreated cell−Atriton-X cells)×100
A plot of % of survival against concentration of compound was plotted using Origin Pro software.

[3] = system: MSSA; assay: Cytoplasmic membrane depolarization assay (diSC3(5)); format: cell-based, S. aureus; conditions: concentration as high as 40 μM
Experimental: Midlog phase bacterial cells were harvested, washed with about 5 mM HEPES and about 5 mM glucose and resuspended in about 5 mM glucose, about 5 mM HEPES buffer and about 100 mM KCl solution in 1:1:1 ratio (about 10^8 cfu/ml). Measurements were made in a cuvette containing about 2 ml of bacterial suspension and about 2 μM diSC3(5). The fluorescence of the dye was monitored for about 10 min (MSSA) to about 20 min (E. coli) at R.T. spectrofluorometer at excitation wavelength of about 622 nm and emission wavelength of about 670 nm. Dye uptake, and resultant self quenching, was modulated by the membrane potential. After reaching the maximum uptake of the dye by bacteria, which was indicated by a minimum in dye fluorescence, (after about 10 min for S. aureus and about 20 min for E. coli) compounds (4 and 7) and control were added to the cells, and the decrease in potential was monitored by the increase in fluorescence for further about 10 min.

[4] = system: Vancomycin restant S. aureus (Clinical isolate, MMC-20, VanA & VanB); assay: MIC, broth dilution method in Mueller-Hinton broth; format: cell-based; conditions: VRSA
Experimental: For vancomycin resistant staphylococcus aureus (VRSA; clinical isolate MMC-20), the MIC of compounds was determined by broth dilution method using Mueller-Hinton broth (MHB), as recommended by the National Committee for Clinical Laboratory Standards. About 5×10^4 bacterial cells in MHB culture were treated with different concentrations of compounds, and shaken for 16 h at 37° C. The minimum concentration at which there was no visible turbidity was taken as the MIC of that compound.

[5] = system: MRSA; assay: Time-kill assay; format: cell-based, S. aureus; conditions: 1×MIC, 6×MIC, 12×MIC, 0-3 h
Experimental: The bactericidal activity was assessed by the kinetics or the rate at which it affects the killing action of the compound. Briefly MRSA grown in Yeast-Dextrose broth. […] Bacterial suspension containing specified concentrations of the compound along with negative control (which contains only 0.9% Saline) was incubated at 37° C. with shaking. Aliquots (20 μl) were removed from the cultures at 0, 1, 2 and 3 h and were serially diluted 10-fold in 0.9% saline and plated onto sterile Yeast-Dextrose agar medium. The number of viable cells was determined by plating the 10-fold serial dilution of each sample onto Yeast-dextrose agar medium. Plates were then incubated for 24 h at 37° C., CFU was counted and the total bacterial log10 CFU/ml was determined.

[6] = system: MRSA; assay: MBC by plating; format: cell-based, S. aureus; conditions: Staphylococcus aureus; against MRSA
Experimental: as §1, §2, §3

[7] = system: MSSA; assay: MBC by plating; format: cell-based, S. aureus; conditions: against MSSA
Experimental: as §1, §2, §3

[8] = system: Methicillin resistant S. aureus (ATCC 33591); assay: microbe, parasite or virus in culture; format: cell-based
Experimental: For solid media, about 5% agar was used along with above mentioned composition. […] VSE and VRE were cultured in Brain Heart Infusion broth (Himedia). […] The 6 h grown culture was diluted to give effective cell concentration of about 10^5 cfu/mL which was then used for determining MIC.
About 50 μL of these serial dilutions were added to the wells of 96 well plate followed by the addition of about 150 μL of bacterial solution. […] Each concentration had triplicate values and the whole experiment was done at least twice and the MIC value was determined by taking the average of triplicate O. D. values for each concentration and plotting it against concentration. The data was then subjected to sigmoidal fitting.

[9] = system: Human Red Blood Cells (RBC); assay: Hemolytic assay; format: cell-based; conditions: Erythrocyte, 1 h, about one hour at about 37° C., read-out: EC50 (hemolysis)
Experimental: Fresh human blood was collected under aseptic conditions in heparinised vacutainers. vancomycin derivatives are serially diluted, in sterile water (about 2 fold dilution is employed) in a way that the working concentration is about 100 μM. Heparinised blood was centrifuged down at about 3500 rpm for about 5 min in order to separate Red Blood Cells and blood plasma. RBC's are then washed couple of times with PBS pH-7.4 and suspended in PBS such that the final concentration of RBC was about 5 vol %. About 150 μL of this is mixed with about 50 μL of serially diluted compound in 96 well plate. The plate was then incubated at about 37° C. for about one hour. Later, the plate was centrifuged down at about 3500 rpm for about 5 min. The lysed RBC releases haemoglobin which was present in the supernatant. The supernatant thus was pipetted out into another fresh 96 well plate and the absorbance was measured at about 540 nm.
Percentage of hemolysis was determined as (A−A0)/(Atotal−A0)×100, where A is the absorbance of the test well, A0 the absorbance of solution without compound, and Atotal the absorbance of 100% hemolysis wells (with Triton X-100), all at 540 nm.

[10] = system: Vancomycin sensitive E. faecium (ATCC 19634); assay: MIC, micro-dilution broth; format: cell-based
Experimental: as §1, §2

[11] = system: E. coli; assay: MIC, micro-dilution broth; format: cell-based
Experimental: as §1, §2

[12] = system: Vancomycin resistant E. faecium (VanA, ATCC 51559); assay: MIC, micro-dilution broth; format: cell-based
Experimental: as §1, §2

[13] = system: Methicillin sensitive S. aureus (MTCC 737); assay: MIC, micro-dilution broth; format: cell-based
Experimental: as §1, §2

Compound: CN[C@H](CC(C)C)C(=O)N[C@H]1C(=O)N[C@@H](CC(N)=O)C(=O)N[C@H]2C(=O)N[C@H]3C(=O)N[C@H](C(=O)N[C@H](C(=O)O)c4cc(O)cc(O)c4-c4cc3ccc4O)[C@H](O)c3ccc(c(Cl)c3)Oc3cc2cc(c3O[C@@H]2O[C@H](CO)[C@@H](O)[C@H](O)[C@H]2O[C@H]2C[C@](C)(N)[C@H](O)[C@H](C)O2)Oc2ccc(cc2Cl)[C@H]1O [Vancomycin]
- MBC ([1]; Escherichia coli): > 100 µM
- MBC ([1]; against E. coli, listed as Control): >100 µM
- EC50 at 24 h [2]: > 100 µM
- membrane depolarization [3]: remained ineffective
- MIC ([4]; Staphylococcus aureus): > 86 µM
- killing kinetics (in words) [5]: relatively slow killing or bacteriostatic effect
- MBC [6]: 2.5 µM (≈ 3.62 µg/mL)
- MBC ([7]; Staphylococcus aureus, MSSA): ~2.5 µM (≈ 3.62 µg/mL)
- MBC ([7]; listed as Control): 2.5 µM (≈ 3.62 µg/mL)
- MIC ([8]; Staphylococcus aureus, ATCC 33591 / MRSA): 0.63 µM (≈ 0.913 µg/mL)
- EC50 [9]: > 100 µM
- MIC ([10]; Enterococcus faecium, ATCC19634): 0.6 µM (≈ 0.87 µg/mL)
- MIC ([11]; Escherichia coli): 80 to 100 µM (≈ 116 to 145 µg/mL)
- MIC ([12]; Enterococcus faecium, ATCC 51559 / VRE): > 100 µM
- MIC ([13]; Staphylococcus aureus, MSSA / MTCC737): 0.63 µM (≈ 0.913 µg/mL)

Compound: CCCCCCCCCCCCCC[N+](C)(C)CCCNC(C)=O [Compound 14, N′-Acetyl N-tetradecyl N,N dimethyl 1,3 propanediamine]
- MBC ([1]; against E. coli): >100 µM
- MIC ([11]; against E. coli): >100 µM

Compound: CN[C@H](CC(C)C)C(=O)N[C@H]1C(=O)N[C@@H](CC(N)=O)C(=O)N[C@H]2C(=O)N[C@H]3C(=O)N[C@H](C(=O)N[C@H](C(=O)NCCCN(C)C)c4cc(O)cc(O)c4-c4cc3ccc4O)[C@H](O)c3ccc(c(Cl)c3)Oc3cc2cc(c3O[C@@H]2O[C@H](CO)[C@@H](O)[C@H](O)[C@H]2O[C@H]2C[C@](C)(N)[C@H](O)[C@H](C)O2)Oc2ccc(cc2Cl)[C@H]1O [Compound 1]
- MBC ([1]; against E. coli): 50 µM (≈ 76.7 µg/mL)
- MIC ([4]; clinical isolate MMC-20): 0.53 µM (≈ 0.813 µg/mL)
- MBC [7]: 1.25 µM (≈ 1.92 µg/mL)
- MIC ([8]; MRSA, ATCC 33591): 0.61 µM (≈ 0.935 µg/mL)
- MIC ([10]; VSE, E. faecium ATCC 19634): 0.63 µM (≈ 0.966 µg/mL)
- MIC ([11]; against E. coli): 50 µM (≈ 76.7 µg/mL)
- MIC ([12]; VRE, E. faecium VanA ATCC 51559): >100 µM
- MIC ([13]; MSSA, S. aureus MTCC 737): 0.62 µM (≈ 0.951 µg/mL)
